Reference: ChEMBL document CHEMBL1255270, “Relationship between antibiotic use and incidence of MexXY-OprM overproducers among clinical isolates of Pseudomonas aeruginosa” (2008)
Converted amounts (≈) assume the structure as drawn.

What was measured:
Format in all cases: functional
[1] = tested on: Pseudomonas aeruginosa; assay: Antimicrobial activity against MexXY-OprM-overproducing Pseudomonas aeruginosa PAO1 harboring MexY agrW mutant and MexZ mutant gene selected after 4 ug/ml of cefepime exposure
[2] = tested on: Pseudomonas aeruginosa; assay: Antimicrobial activity against mexXY-OprM-overproducing Pseudomonas aeruginosa PAO1
[3] = tested on: Pseudomonas aeruginosa; assay: Antimicrobial activity against MexXY-OprM-overproducing Pseudomonas aeruginosa PAO1 harboring MexY agrZ mutant and MexZ mutant gene selected after 1 ug/ml of Norfloxacin exposure
[4] = tested on: Pseudomonas aeruginosa; assay: Antimicrobial activity against MexXY-OprM-overproducing Pseudomonas aeruginosa PAO1 harboring MexY agrZ mutant and MexZ mutant gene selected after 4ug/ml of gentamycin exposure
[5] = tested on: Pseudomonas aeruginosa; assay: Antimicrobial activity against mexXY-OprM-overproducing Pseudomonas aeruginosa isolate PA/XY assessed as zone of inhibition by disk diffusion method
[6] = tested on: Pseudomonas aeruginosa; assay: Antimicrobial activity against MexXY-OprM-overproducing Pseudomonas aeruginosa PAO1 harboring MexY and MexZ mutant gene selected after 0.25 ug/ml of ciprofloxacin exposure
[7] = tested on: Pseudomonas aeruginosa; assay: Antimicrobial activity against MexXY-OprM-overproducing Pseudomonas aeruginosa PAO1 harboring MexY agrZ mutant and MexZ mutant gene selected after 1 ug/ml of tobramycin exposure
[8] = tested on: Pseudomonas aeruginosa; assay: Antimicrobial activity against MexXY-OprM-overproducing Pseudomonas aeruginosa PAO1 harboring MexY agrW mutant and MexZ mutant gene selected after 8 ug/ml of amikacin exposure
[9] = tested on: Pseudomonas aeruginosa; assay: Antimicrobial activity against MexXY-OprM-overproducing Pseudomonas aeruginosa PAO1 harboring MexY agrW mutant and MexZ mutant gene selected after 0.25 ug/ml of ciprofloxacin exposure
[10] = tested on: Pseudomonas aeruginosa; assay: Antimicrobial activity against mexXY-OprM-overproducing Pseudomonas aeruginosa clinical isolate
[11] = tested on: Pseudomonas aeruginosa; assay: Antimicrobial activity against MexXY-OprM-overproducing Pseudomonas aeruginosa PAO1 harboring MexY agrW mutant and MexZ mutant gene selected after 1 ug/ml of oflaxacin exposure
[12] = tested on: Pseudomonas aeruginosa; assay: Antimicrobial activity against MexXY-OprM-overproducing Pseudomonas aeruginosa PAO1 harboring MexY and MexZ mutant gene selected after 8 ug/ml of amikacin exposure
[13] = tested on: Pseudomonas aeruginosa; assay: Antimicrobial activity against MexXY-OprM-overproducing Pseudomonas aeruginosa PAO1 harboring MexY and MexZ mutant gene selected after 4 ug/ml of cefepime exposure

Compound: NC[C@H]1O[C@H](O[C@H]2[C@H](O)[C@@H](O[C@H]3O[C@H](CO)[C@@H](O)[C@H](N)[C@H]3O)[C@H](N)C[C@@H]2N)[C@H](N)C[C@@H]1O [TOBRAMYCIN]
- MIC [1]: 2 µg/mL
- MIC [2]: 1 µg/mL (≈ 2.14 µM)
- MIC [3]: 2 µg/mL
- MIC [4]: 2 µg/mL
- inhibition zone (IZ) [5]: <20 mm
- MIC [6]: 2 µg/mL
- MIC [7]: 2 µg/mL
- MIC [8]: 2 µg/mL
- MIC [9]: 2 µg/mL
- MIC [10]: 1 µg/mL (≈ 2.14 µM)
- MIC [11]: 2 µg/mL
- MIC [12]: 2 µg/mL
- MIC [13]: 2 µg/mL

Compound: CO/N=C(\C(=O)N[C@@H]1C(=O)N2C(C(=O)[O-])=C(C[N+]3(C)CCCC3)CS[C@H]12)c1csc(N)n1
- MIC [1]: 4 µg/mL
- MIC [2]: 2 µg/mL (≈ 4.16 µM)
- MIC [3]: 4 µg/mL
- MIC [4]: 4 µg/mL
- MIC [6]: 4 µg/mL
- MIC [7]: 4 µg/mL
- MIC [8]: 4 µg/mL
- MIC [9]: 4 µg/mL
- MIC [11]: 4 µg/mL
- MIC [12]: 4 µg/mL
- MIC [13]: 4 µg/mL

Compound: GENTAMICIN
- MIC [1]: 8 µg/mL
- MIC [2]: 4 µg/mL
- MIC [3]: 8 µg/mL
- MIC [4]: 8 µg/mL
- inhibition zone (IZ) [5]: < 20 mm
- MIC [6]: 8 µg/mL
- MIC [7]: 8 µg/mL
- MIC [8]: 8 µg/mL
- MIC [9]: 8 µg/mL
- MIC [10]: 2 µg/mL
- MIC [11]: 8 µg/mL
- MIC [12]: 8 µg/mL
- MIC [13]: 8 µg/mL

Compound: O=C(O)c1cn(C2CC2)c2cc(N3CCNCC3)c(F)cc2c1=O [CIPROFLOXACIN]
- MIC [2]: 0.12 µg/mL (≈ 0.362 µM)

Compound: NCC[C@H](O)C(=O)N[C@@H]1C[C@H](N)[C@@H](O[C@H]2O[C@H](CN)[C@@H](O)[C@H](O)[C@H]2O)[C@H](O)[C@H]1O[C@H]1O[C@H](CO)[C@@H](O)[C@H](N)[C@H]1O [AMIKACIN]
- MIC [1]: 8 µg/mL
- MIC [2]: 4 µg/mL (≈ 6.83 µM)
- MIC [3]: 8 µg/mL
- MIC [4]: 8 µg/mL
- inhibition zone (IZ) [5]: <20 mm
- MIC [6]: 8 µg/mL
- MIC [7]: 8 µg/mL
- MIC [8]: 8 µg/mL
- MIC [9]: 8 µg/mL
- MIC [10]: 4 µg/mL (≈ 6.83 µM)
- MIC [11]: 8 µg/mL
- MIC [12]: 8 µg/mL
- MIC [13]: 8 µg/mL
